Where two headings read alike, the source gives them in different places.

In one assay the test system is 3Y1. Kind of assay: Growth inhibition of 3Y1 cells (MTT assay). It counts as cell-based, rat. As to conditions: read-out: IC50 growth inhibition. The protocol:
(§1) Cell lines were obtained from the German Collection of Microorganisms and Cell Cultures (DSMZ). Cell lines 3Y1 and M1 (embryonal fibroblasts from 129/Ola × C57BL/6 mice, [30]) were a generous gift from Dr. S. Miyamoto, Fukoka, Japan, and Dr. P. F. Mühlradt, Braunschweig, Germany. All cell lines were cultivated under conditions recommended by the supplier. Growth inhibition was measured in microtiterplates. Aliquots of 120 μl of the suspended cells (50,000/ml) were given to 60 μl of a serial dilution of the inhibitor. After 5 days, growth was determined using the MTT assay.
For orientation: Formazan colour is commonly taken as a measure of viable cells.

The subject of another assay is KB-V1. The experiment in a line: Growth inhibition of multidrug-resistant KB-V1 cells (MTT assay), with or without verapamil. Type of assay: cell-based. As to conditions: 120 h; KB-V1, mdr human cervix carcinoma; without verapamil; MTT after 5 days. The method, then: The novel antibiotics archazolids and apicularens (Fig. 1) were checked for their impact on the cell growth of a variety of mammalian cell lines from different tissues (Tab. 1). […] Apicularen B was the only exception, with an average IC50 value two orders of magnitude higher. Growth inhibition of the multidrug-resistant cell line KB-V1 was also measured in the presence of verapamil. […] The data in Tab 1. show, that unlike the archazolids, the apicularens are poor substrates of Pgp. To visualize the impact of the antibiotics, PtK2 (potoroo kidney) cells were incubated with the inhibitors and stained for intact acidic lysosomes (Fig. 2). […] The same observation was made with KB-3-1 cells (data not shown). […] Unlike the cell lines listed in Tab. 1, the growth of PtK2 cells was not completely stopped. The same holds true for A-498 cells (human kidney carcinoma). Both cell lines grow epithelial-like. There was obviously a differential reaction of cell lines to V-ATPase inhibitors. For A-431 cells (human epidermoid carcinoma) a dependence on the expression of the EGF receptor was shown.
as §1

Assay [1] deals with A-594. Kind of assay: Growth inhibition of A-594 cells (MTT assay). As to conditions: 120 h, read-out: IC50 growth inhibition. Type of assay: cell-based, human. The protocol: as §1
For another assay, the system named is M1. Kind of assay: Growth inhibition of M1 cells (MTT assay). Type of assay: cell-based, mouse. As to conditions: 120 h, read-out: IC50 growth inhibition. The method, then:
as §1

Another assay deals with PtK2 cells. The experiment in a line: Inhibition of lysosomal acidification (LysoTracker staining). It counts as cell-based, potoroo. As to conditions: 4 hours with inhibitor. The method, then: PtK2 (ATCC CCL-56) or KB-3-1 cells were grown on glass coverslips (13 mm diameter) in four-well-plates. Exponentially growing cells were incubated with the inhibitors for 4 hours and stained for lysosomes with 50 nM LysoTracker Red DND-99 and for mitochondria with 75 nM MitoTracker Green FM (both from Molecular Probes) at 37°C for 30 min. The nuclei were stained using Hoechst 33258 (5 μg/ml). The coverslips were mounted upside down in PBS, fixed with nail polish, and observed under the fluorescent microscope.

The next assay concerns L-929. Also noted: method as in PMID 12931860. As to conditions: L-929, murine connective tissue; ref [17]; read-out: IC50 growth inhibition; cited from earlier work.
The target of assay [2] is T1, Vo subunit c (Manduca sexta, UniProt P31403).
T1 construct: from tissue; host or cells: midgut of Manduca sexta larvae (purified V-ATPase)
Also noted: method as in PMID 12186879. As to conditions: previous study; ref [10]; cited from earlier work.

In the next assay the target is T2, Na+/K+-ATPase (Sus scrofa, UniProt P05024).
T2 construct: highly purified, Na^+/K^+-ATPase containing plasma membranes from pig kidney; from tissue; host or cells: pig kidney, purified plasma membranes
The experiment in a line: Inhibition of Na+/K+-ATPase from pig kidney. It counts as biochemical. As to conditions: inhibitor 1 μM. The protocol: (§2) The V-ATPase holoenzyme was purified as published elsewhere. Preparation of highly purified membranes containing Na^+/K^+-ATPase from pig kidney followed the protocol of Jørgensen with the three main steps of differential centrifugation, incubation with SDS in the presence of ATP and sucrose density gradient centrifugation in a fixed angle rotor, and led to a specific enzyme activity which was in the same range as that reported by the authors. The resulting sample was stored frozen at -20°C. To prepare crude membrane extracts, the hearts of three mice were washed three times with an ice-cold buffer of pH 8.1 consisting of 0.25 M sucrose, 5 mM Tris-HCl, 5 mM EDTA, and 10 mM Pefabloc SC (Biomol), homogenized in 5 ml of this buffer and centrifuged at 4°C for 25 min at 233,000 × gmax in a fixed angle rotor. The resulting pellet was resuspended in 5 ml of a buffer of pH 7.5, consisting of 5 mM Tris-MOPS (3-morpholinopropanesulfonic acid), 10 mM NaCl, 10 mM Pefabloc SC, 9.6 mM 2-mercaptoethanol, 0.53 mM EGTA and 0.1 % Triton X-100. After an aliquot for protein determination had been taken, 10% bovine serum albumin (final concentration) was added to the suspension which was then stored on ice until the activity assays were run. Beef heart mitochondria were isolated by differential centrifugation, following the protocol of Smith by using a blender to homogenize the heart mince. The initial homogenization buffer consisted of 250 mM saccharose, 10 mM KH2PO4, 10 mM Tris, 2 mM EGTA, 2 mM MgCl2, pH 7.4, and further isolation procedures were carried out in the same medium without EGTA [24]. Submitochondrial particles were obtained by ultrasonic treatment of the mitochondria.
(§3) Standard V-ATPase assays with a final volume of 160 μl and a pH of 8.1 consisted of 3–4 μg of protein, 50 mM Tris-MOPS, 3 mM 2-mercaptoethanol, 1 mM MgCl2, 20 mM KCl, 0.003% C12E10, 20 mM NaCl, and 3 mM Tris-HCl. After 5 min of pre-incubation at 30°C with or without inhibitors, 1 mM Tris-ATP was added and after incubation for 2 min the reaction was stopped by placing the tube in liquid nitrogen. Assays using Na^+/K^+-ATPase were performed in 160 μl at pH 7.5 and contained 0.5 μg of protein, 50 mM Tris-MOPS, 5 mM imidazole, 0.2 mM EDTA, 4 mM MgCl2, 20 mM KCl and 100 mM NaCl. After 5 min of pre-incubation at 37°C with or without inhibitors, 3 mM Tris-ATP was added and after 1 min of incubation the reaction was stopped by placing the tube in liquid nitrogen. […] After 5 min of pre-incubation at 30°C with or without inhibitors, 1 mM Tris-ATP was added and after an incubation time of 10 min the reaction was stopped by placing the tubes in liquid nitrogen. ATPase assays with submitochondrial particles from beef heart were performed in a final volume of 1 ml and a pH of 8.0. The samples contained 9–12 μg protein, 50 mM Tris, 50 mM KCl and 2.5 mM MgCl2. After 5 min of preincubation with or without inhibitors, 5 mM ATP was added, and after an additional incubation time of 15 min the reaction was stopped by the addition of 0.4 ml of 20 % TCA.
(§4) Inorganic phosphate produced in the assays of V-ATPase, Na^+/K^+-ATPase and mouse heart F-ATPase was measured according the protocol of Wieczorek et al., while the determination of inorganic phosphate produced in the assays of beef heart F-ATPase followed the method of Fiske and Subarrow using ascorbic acid as reducing agent.

The target of assay [3] is T3, V-ATPase holoenzyme from the midgut of the tobacco hornworm (Manduca sexta, UniProt P31403).
T3 construct: purified V-ATPase holoenzyme from the midgut of the tobacco hornworm; from tissue; host or cells: midgut of fifth instar Manduca sexta larvae
Also noted: method as in PMID 12186879. As to conditions: ref [10], cited from earlier work.

Assay [4] addresses T3, V-ATPase holoenzyme from the midgut of the tobacco hornworm. Kind of assay: Inhibition of purified V-ATPase holoenzyme activity. It counts as biochemical. As to conditions: for IC50 per mg of protein, purified V-ATPase: equivalent of the half-maximal concentration. The method, then:
as §2, §3, §4
Fifth instar larvae of M. sexta (Lepidoptera, Sphingidae), weighing 6–8 g, were reared under long day conditions (16 h of light) at 27°C using a synthetic diet modified according to Bell et al.

For assay [5], the target named is T1, Vo subunit c. Kind of assay: Protection of V-ATPase subunit c from photoaffinity labelling by I-concanolide A. Type of assay: binding. As to conditions: pre-incubation 100 μM or 10 μM, 60 min on ice; I-concanolide A 10 μM; UV. The protocol: Twenty micrograms of the samples were pre-incubated with the inhibitors for 1 h on ice. The labelled I-concanolide A was then added to give a final concentration of 10 μM. Controls were run without effectors. Mixtures with volumes of 40 μl were incubated for an additional 1 h on ice and then treated for 3 min with UV light (366 nm) on ice. After UV irradiation, 10 μl of 5-fold sample buffer was added, the mixture was heated for 45 s at 95°C, cooled on ice, and subjected to Tricine-SDS-PAGE (16.5% T, 3% C separating gel and 10%T, 3% C spacer gel), followed by Coomassie staining. The gels were sealed in plastic wrap before they were exposed to a phosphoscreen for up to 72 h and analyzed with the aid of a phosphoimager (Molecular Dynamics).

A further assay deals with bacterial growth. As to conditions: ref [11],[15],[17]; cited from earlier work.
Assay [6] deals with A-594. Also noted: method as in PMID 10048565. As to conditions: A-594, human lung carcinoma; ref [15]; read-out: IC50 growth inhibition; cited from earlier work.
Setting [7] is: 120 h, 3Y1, rat embryogenic fibroblast cell line, MTT after 5 days.
[8] abbreviates: A-594, human lung carcinoma, MTT after 5 days.
[9] abbreviates: M1, mouse embryogenic fibroblast cell line, MTT after 5 days.

T1 sequence (P31403 whole entry): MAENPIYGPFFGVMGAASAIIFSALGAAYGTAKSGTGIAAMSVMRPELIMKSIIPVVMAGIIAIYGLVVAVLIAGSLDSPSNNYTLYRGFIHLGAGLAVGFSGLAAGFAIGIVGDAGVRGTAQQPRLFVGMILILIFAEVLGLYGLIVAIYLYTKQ
T3 sequence (P31403 whole entry): as above

Regarding `CO/C1=C\C(C)=C\[C@@H](C)[C@@H](O)[C@@H](C)C/C(C)=C/C=C/[C@H](OC)[C@@H]([C@@H](C)[C@@H](O)[C@H](C)[C@@]2(O)C[C@@H](O)[C@H](C)[C@@H](C(C)C)O2)OC1=O` [bafilomycin A1, reference compound], the IC50 with 3Y1 (setting [7]) was 5.6 nM; in the assay with KB-V1 it was 7.2 nM; in the assay on A-594 [1] (setting [8]), 0.4 nM; with M1 (setting [9]), 2.6 nM; in the assay with L-929, 3.2 nM. The “red LysoTracker staining indicating acidic lysosomes” value with PtK2 cells was “disappeared”. The “labelling of / binding to subunit c” value at Vo subunit c [2] is listed as “prevented”.
In the case of `C/C=C/[C@H]1O[C@@](O)([C@@H](C)[C@H](O)[C@H](C)[C@H]2OC(=O)/C(OC)=C/C(C)=C/[C@@H](C)[C@@H](O)[C@@H](CC)[C@@H](O)[C@H](C)C/C(C)=C/C=C/[C@@H]2OC)C[C@@H](O[C@H]2C[C@@H](O)[C@H](OC(N)=O)[C@@H](C)O2)[C@@H]1C` [concanamycin A, reference compound], the IC50 was 1.4 nM with 3Y1 (setting [7]); 28 nM in the assay with KB-V1; 0.17 nM in the assay with A-594 [1] (setting [8]); 0.56 nM with M1 (setting [9]); 0.23 nM in the assay on L-929; ~10 nM in [3] (read-out: half-maximal inhibition concentration of purified V-ATPase). Further, the “specific activity of Na+/K+-ATPase” value on Na+/K+-ATPase (experiment 1, control 19.0) is 16.7 µmol/mg/min; at Na+/K+-ATPase (experiment 2, control 15.9), 12.7 µmol/mg/min. For the same compound, the “effect on Na+/K+-ATPase activity” value at Na+/K+-ATPase is “slight inhibition of comparable size”. Besides, in the assay on PtK2 cells, the “red LysoTracker staining indicating acidic lysosomes” value is recorded as “disappeared”. Moreover, the “IC50 per mg of protein, purified V-ATPase” value (shortened to “IC50 per mg of protein”) in assay [3] is “ca. 0.5 nmol per mg of protein”. Further, the “labelling of / binding to subunit c” value on Vo subunit c [2] was “prevented”.
Consider `CNC(=O)O[C@@H](CC(C)C)c1nc([C@H]2OC(=O)/C(C)=C/C/C(C)=C/[C@@H](O)[C@@H](C)\C=C(C)/C=C(C)\C=C\[C@@H](O)[C@H](C)[C@H](OC)/C(C)=C/C=C/[C@@H]2C)cs1` [archazolid A], for which the IC50 was 0.95 nM with 3Y1 (Rattus norvegicus, 3Y1, 120 h); 48 nM in the assay on KB-V1; 0.54 nM in the assay on A-594 [1] (Homo sapiens); 0.27 nM in the assay with M1 (Mus musculus, Fibroblast); ~20 nM in [4]; 0.81 nM in the assay with L-929. The “IC50 per mg of protein” value in assay [4] is recorded as “ca. 0.8 nmol per mg of protein”. Further, the “specific activity of Na+/K+-ATPase” value at Na+/K+-ATPase (experiment 1, control 19.0) stood at 17.1 µmol/mg/min; on Na+/K+-ATPase (experiment 2, control 15.9), 12.2 µmol/mg/min. The “effect on Na+/K+-ATPase activity” value at Na+/K+-ATPase is recorded as “only slightly affected”. In the assay with PtK2 cells, the “red LysoTracker staining indicating acidic lysosomes” value is reported as “disappeared”. In addition, the “labelling of subunit c by I-concanolide A after pre-incubation” value at Vo subunit c [5] was “completely abolished”. For the same compound, the “inhibition of bacterial growth” value in the assay with bacterial growth was “failed to inhibit”.
In the case of `CC/C=C\C=C/C(=O)N/C=C/C[C@H]1C[C@H]2C[C@H](O)C[C@H](Cc3cccc(O)c3C(=O)O1)O2` [apicularen A], the IC50 was 3.2 nM with 3Y1 (setting [7]); 23 nM in the assay with KB-V1; 1.4 nM in the assay with M1 (setting [9]); ~20 nM in assay [4] (purified holoenzyme, 3–4 μg protein, pH 8.1, 30°C, read-out: half-maximal inhibition concentration of purified V-ATPase); 0.23 nM in the assay with A-594 [6]. Moreover, in assay [4], the “IC50 per mg of protein” value is recorded as “ca. 0.8 nmol per mg of protein”. For the same compound, the “specific activity of Na+/K+-ATPase” value on Na+/K+-ATPase (experiment 1, control 19.0) came to 17.3 µmol/mg/min; on Na+/K+-ATPase (experiment 2, control 15.9), 13.2 µmol/mg/min. Besides, the “effect on Na+/K+-ATPase activity” value at Na+/K+-ATPase was “only slightly affected”. The “red LysoTracker staining indicating acidic lysosomes” value with PtK2 cells is on record as “disappeared”. At Vo subunit c [5], the “labelling of subunit c by I-concanolide A after pre-incubation” value is given as “did not appear to interfere”. Further, the “inhibition of bacterial growth” value in the assay with bacterial growth was “failed to inhibit”.

These data come from article PMC1190152, “Archazolid and apicularen: Novel specific V-ATPase inhibitors” (BMC Biochemistry, 2005).
